Results reported in patent EP1935887A1, “Heterocyclic substituted carbonyl derivatives and their use as dopamine D3 receptor ligands” (Aventis Pharmaceuticals Inc., priority 2001, dated 2002).
pKi: −log10 of the molar value.

molecular target: T1, Cloned Human Dopamine D3 Receptors (Homo sapiens, UniProt P35462); assay: [N-Methyl-3H]Spiroperidol binding to cloned human dopamine D3 receptors; settings: D3 Ki (nM)
T1 construct: expressed in transfected cells; membrane homogenate
Text: [N-Methyl-^3H]Spiroperidol Binding to Cloned Human Dopamine D3 Receptors
This assay measures the in vitro activity of compounds on cloned human dopamine (D3) receptors and predicts the direct dopamine-blocking properties of putative neuropsychiatric agents at human dopamine D3 receptors.
The D3 gene was isolated from a human striatal cDNA library (Stratagene). The gene was sequenced and sub-cloned into the expression vector RC/RSV (Invitrogen). CHO (Chinese Hamster Ovary) cells were stably transfected with 10 µg of the D3/RSV plasmid using the DOTAP method from Boehringer Mannheim and 72 clones that were G418 resistant were isolated. Using mRNA and binding displacement data a single high expressing clone was identified. This clone was then grown in large batches for the purpose of developing a 96 well format assay.
• 1. One plate (10 cm) with approximately 2-3 million D3 cells per plate is incubated with 1 ml of Trypsin-EDTA at room temperature for -2 min or until cells have lifted off plates. Four ml of Ham's F12 + 10% Fetal Bovine Serum + 1% Penicillin/Streptomycin + G418 (400 µg/ml) medium are added to resuspend cells and 1 ml of this is added to each large plate (15 cm) containing 19 ml of the same medium as mentioned above. • 2. The 5 large plates are incubated at 37°C + 5% CO2 for - 3 days or until the cells are confluent. • 3. After these plates are confluent, they are split into 10 large plates. Medium is aspirated off, 2 ml of Trypsin-EDTA are added to each plate and plates are incubated at RT for 2 min or until cells have lifted off the plate. Eight ml of the F12 medium (same medium as #1 above) are added to each plate (10 ml total) to resuspend the cells and 5 ml are transferred to the 2 new plates containing 15 ml of the F12 media. • 4. The 10 large plates are incubated at 37°C + 5% CO2 for ∼ 2 days or until the cells are confluent. • 5. The 10 large plates are split into 60 large plates (using Trypsin-EDTA as #3 except 4 ml of F12 medium are added to resuspend cells and 1 ml is aliquoted to 6 new plates containing 19 ml of F12 medium each). • 6. Plates are incubated at 37°C + 5% CO2 for - 3 days or until cell are confluent. • 7. The 60 large plates are then split into 60 roller bottles (100-150 million cells/bottle). Medium is aspirated off , 2 ml of Trypsin-EDTA are added to each plate and incubated at RT for -2 minutes or until cells have lifted off plates. Eight ml of F12 medium are added to each plate to resuspend cells and the entire 10 ml are added to 1 roller bottle containing 90 ml of the F12 medium. • 8. The 60 roller bottles are immediately placed on their sides and transferred to the roller bottle incubator. They are incubated at 37°C + 5% CO2 for ~ 3-5 days. Cells are spun at 30-40% motor speed in the Forma incubator. • 9. Medium is poured off and cells are washed 2X in PBS. • 10. Cells are then scraped off in 20 ml of PBS and the bottles are rinsed again with 5 ml of PBS to remove any remaining cells. Cells are stored on ice before membrane prepration. • 11. The yield for 60 D3 roller bottles has varied from - 260-500 mg. Note: All tissue culture reagents are from Gibco-BRL.
The cells are harvested into 250 ml centrifuge tubes with 100 volumes of cold phosphate buffered saline (PBS) and spun down (1200xG for 10 min at 4°C). The medium is removed and 100 ml PBS are added to each centrifuge tube, cells are resuspened and spun down again. The PBS is removed and the final pellet is homogenized in an appropriate volume of 10% DMSO with a polytron on ice at a medium setting.
A 200 µl sample membrane homogenate is added to 200 µl of 1% SDS, vortexed and allowed to stand for 5 min. Aliquots (25, 50 and 100 µl) of this mixture are assayed in duplicate following the standard Bio-Rad DC protein assay protocol (kit catalog number 500-0112) and using reagent S. Absorbance readings are made at 750 nm (note: the most accurate protein OD readings are between 0.1-0.5 units). […]

T1 sequence (P35462 whole entry): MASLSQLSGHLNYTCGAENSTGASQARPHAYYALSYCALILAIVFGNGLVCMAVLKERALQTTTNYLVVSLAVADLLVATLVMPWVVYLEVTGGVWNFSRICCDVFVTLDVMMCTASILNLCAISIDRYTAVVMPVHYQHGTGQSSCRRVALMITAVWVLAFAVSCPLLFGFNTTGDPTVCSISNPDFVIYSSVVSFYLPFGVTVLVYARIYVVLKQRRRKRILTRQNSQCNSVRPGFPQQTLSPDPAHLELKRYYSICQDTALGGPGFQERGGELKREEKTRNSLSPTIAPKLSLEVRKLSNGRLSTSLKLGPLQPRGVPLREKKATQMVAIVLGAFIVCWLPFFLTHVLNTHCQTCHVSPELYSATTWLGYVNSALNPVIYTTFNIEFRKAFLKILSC

Point of comparison: `O=C(NC1CCN(Cc2ccc(F)c(F)c2)CC1)C1CC1CN1CCC(c2noc3ccsc23)CC1` (stereo not drawn) [compound 832342], Ki 0.077 nM. Against it:
- CN1CCCC1CCNC(=O)C1CC1CN1CCN(c2csc3cc(C(F)(F)F)ccc23)CC1 (stereo not drawn) [compound 832217] — 570-fold higher, 44.1 nM

same assay, conditions: Table 2; unit inferred; read-out: d3Ki

Point of comparison: `CN(C(=O)CCCN1CCN(c2csc3cc(C(F)(F)F)ccc23)CC1CCc1ccccc1)C1CCCCC1` (stereo not drawn) [compound 827074], pKi 6.57. Against it:
- O=C(NCC1CC1)[C@@H]1C[C@H]1CN1CCN(c2csc3cc(C(F)(F)F)ccc23)CC1 [compound 826067] — 1.14 log units higher, 7.71
- CN(C(=O)CCCCN1CCN(c2csc3cc(F)ccc23)CC1)c1ccccc1 [compound 822129] — 0.85 log units higher, 7.42
- Cc1ccc(N2CCN(C[C@@H]3C[C@H]3C(=O)N[C@H]3CC[C@H](C)CC3)CC2)cc1C [compound 817045] — 1.70 log units higher, 8.27
- CC[C@H]1CC[C@H](NC(=O)[C@@H]2C[C@H]2CN2CCN(c3ccc(Cl)c(Cl)c3)CC2)CC1 [compound 817090] — 2.09 log units higher, 8.66
- CCC1CCC(NC(=O)C2CC2CN2CCN(c3cc(Cl)cc(Cl)c3)CC2)CC1 (stereo not drawn) [compound 817097] — 2.63 log units higher, 9.20
- O=C(CCCCN1CCN(c2csc3cc(F)ccc23)CC1)Nc1cccc2ccccc12 [compound 822134] — 0.52 log units higher, 7.09
- C[C@H]1CC[C@H](NC(=O)CCCN2CCCN(c3csc4cc(F)ccc34)CC2)CC1 [compound 826824] — 0.90 log units higher, 7.47
- CCN(CC)C(=O)[C@H]1CC[C@H](NC(=O)[C@@H]2C[C@H]2CN2CCN(c3csc4cc(C(F)(F)F)ccc34)CC2)CC1 [compound 817048] — 1.98 log units higher, 8.55
- CC[C@H]1CC[C@H](NC(=O)[C@@H]2C[C@H]2CN2CCN(c3ncccc3Cl)CC2)CC1 [compound 817566] — 2.04 log units higher, 8.61
- CN(C(=O)CCCN1CCN(c2csc3cc(C(F)(F)F)ccc23)CC1CCCc1ccccc1)C1CCCCC1 (stereo not drawn) [compound 827079] — 0.33 log units higher, 6.90
- CC1C(CN2CCN(c3csc4cc(C(F)(F)F)ccc34)CC2)C1C(=O)NCc1ccc(N(C)C)cc1 (stereo not drawn) [compound 825871] — 0.29 log units higher, 6.86
- CN(C(=O)CCCCN1CCN(c2csc3cc(F)ccc23)CC1)c1ccc(C(C)(C)C)cc1 [compound 822140] — 1.32 log units higher, 7.89
- C[C@@]1(C(=O)NC2CC2)C[C@H]1CN1CCN(c2csc3cc(C(F)(F)F)ccc23)CC1 [compound 825893] — 0.56 log units higher, 7.13
- CCC1CCC(NC(=O)C2CC2CN2CCCN(c3cc(C(F)(F)F)nc(C(C)(C)C)n3)CC2)CC1 (stereo not drawn) [compound 817260] — 1.33 log units higher, 7.90

same assay, conditions: Table 2 part the 10th table; read-out: d3Ki

Point of comparison: `CN(C)C1CCN(C(=O)CCCN2CCN(c3csc4cc(F)ccc34)CC2)C1` (stereo not drawn) [compound 826863], pKi 7.58. Against it:
- CN(C)C1CCN(C(=O)CCCN2CCN(c3csc4cc(F)ccc34)CC2Cc2ccccc2)C1 (stereo not drawn) [compound 827104] — 0.73 log units lower, 6.85
- O=C(CCCN1CCN(c2csc3cc(C(F)(F)F)ccc23)CC1Cc1ccccc1)N1CCC(N2CCCC2)CC1 (stereo not drawn) [compound 827067] — 1.01 log units lower, 6.57
- CC1(C)CCCN(C(=O)[C@@H]2C[C@H]2CN2CCCN(c3csc4cc(F)ccc34)CC2)C1 [compound 826877] — 0.75 log units higher, 8.33
- CC1CCCN(C(=O)CCCN2CCN(c3csc4cc(C(F)(F)F)ccc34)CC2Cc2ccccc2)C1 (stereo not drawn) [compound 827066] — 0.90 log units lower, 6.68
- O=C(CCCN1CCCN(c2csc3cc(F)ccc23)CC1)N1CCC(O)CC1 [compound 826832] — 0.21 log units higher, 7.79
- CC1CCCN(C(=O)CCCN2CCN(c3csc4cc(F)ccc34)CC2Cc2ccccc2)C1 (stereo not drawn) [compound 827096] — 0.23 log units lower, 7.35

same assay, conditions: d3Ki, Table 2; unit inferred

With `C[C@H]1CC[C@H](NC(=O)[C@@H]2C[C@H]2CN2CCN(c3noc4ccsc34)CC2)CC1` [817892A] the pKi was 8.52.

same assay, conditions: d3Ki, Table 2 part the 10th table

`O=C1CCN(C(=O)[C@@H]2C[C@H]2CN2CCN(c3csc4cc(C(F)(F)F)ccc34)CC2)CC1` [compound 826901] was tested, and the pKi was 7.37.

same assay, conditions: read-out: D3 Ki

Point of comparison: `Cn1nc(C2CCN(C[C@@H]3C[C@H]3C(=O)N[C@H]3CC[C@H](C)CC3)CC2)c2cccc(C(F)(F)F)c21` [compound 833305], pKi 8.06. Against it:
- COc1ccc2[nH]cc(CCNC(=O)[C@@H]3C[C@H]3CN3CCC(c4noc5ccsc45)CC3)c2c1 [compound 831275] — 0.23 log units higher, 8.29
- COCCN1CCN(C(=O)[C@@H]2C[C@H]2CN2CCN(c3nn(C)c4ccc(OC)cc34)CC2)CC1 [832748FH] — 0.96 log units lower, 7.10
- C[C@H]1CC[C@H](NC(=O)[C@@H]2C[C@H]2CN2CCN(c3nn(-c4cccc(F)c4)c4ccsc34)CC2)CC1 [compound 833856] — 0.46 log units higher, 8.52
- O=C(NC1CCN(Cc2ccc(F)c(F)c2)CC1)[C@@H]1C[C@H]1CN1CCC(c2noc3ccsc23)CC1 [compound 833165] — 0.91 log units higher, 8.97
- Cn1nc(C2CCN(C[C@@H]3C[C@H]3C(=O)NCCCN3CCCCC3)CC2)c2cccc(C(F)(F)F)c21 [A002329092] — 1.57 log units lower, 6.49
- Cn1nc(N2CCN(C[C@@H]3C[C@H]3C(=O)NCCCN3CCSCC3)CC2)c2sccc21 [A002350370] — 0.97 log units lower, 7.09
- O=C(NCCCn1ccnc1)[C@@H]1C[C@H]1CN1CCN(c2csc3ncccc23)CC1 [compound 833821, 2R-(4-Thieno[2,3-b]pyridin-3-yl-piperazin-1-ylmethyl)-1R-cyclopropanecarboxylic acid (3-imidazol-1-yl-propyl)-amide] — within 0.2 log units, 8.16
- O=C(NCCCc1ccccc1)[C@@H]1C[C@H]1CN1CCC(c2cc3ccccc3s2)CC1 [compound 831489] — 0.29 log units lower, 7.77

same assay, conditions: read-out: d3Ki

Point of comparison: `O=C(N[C@H]1CCCC[C@@H]1O)[C@@H]1C[C@H]1CN1CCN(c2csc3cc(C(F)(F)F)ccc23)CC1` [compound 826892], pKi 7.59. Against it:
- CCOc1ccccc1N1CCN(C[C@@H]2C[C@H]2C(=O)N[C@H]2CC[C@H](CC)CC2)CC1 [compound 827215] — 2.05 log units higher, 9.64
- CCN(C(=O)[C@@H]1C[C@H]1CN1CCN(c2csc3cc(C(F)(F)F)ccc23)CC1)C1CCCCC1 [compound 826894] — within 0.2 log units, 7.46
- O=C(NCc1ccccc1)[C@@H]1CCCC[C@@H]1CN1CCN(c2csc3cc(C(F)(F)F)ccc23)CC1 [compound 826106] — 0.95 log units lower, 6.64
- CC[C@H]1CC[C@H](NC(=O)[C@@H]2C[C@H]2CN2CCN(c3ccccc3Cl)CC2)CC1 [compound 827216] — 1.08 log units higher, 8.67
- O=C(N[C@H]1CC[C@H](C(=O)O)CC1)[C@@H]1C[C@H]1CN1CCN(c2csc3cc(C(F)(F)F)ccc23)CC1 [816078A] — 0.54 log units lower, 7.05
- CN(C)c1ccc(CNC(=O)[C@@H]2CCCC[C@@H]2CN2CCN(c3csc4cc(C(F)(F)F)ccc34)CC2)cc1 [compound 826104] — within 0.2 log units, 7.77
- Cc1cccc(C)c1N1CCN(C[C@@H]2C[C@H]2C(=O)N[C@H]2CC[C@H](C)CC2)CC1 [compound 827200] — 0.67 log units lower, 6.92
- O=C(NC1CCC1)[C@@H]1CCC[C@H]1N1CCN(c2csc3cc(F)ccc23)CC1 [compound 826057] — 0.55 log units lower, 7.04
- O=C(NC1CCCC1)[C@@H]1C[C@H]1CN1CCCN(c2csc3cc(F)ccc23)CC1 [compound 826880] — 0.95 log units higher, 8.54
- O=C(NNC1CCCCC1)[C@@H]1C[C@H]1CN1CCN(c2csc3cc(C(F)(F)F)ccc23)CC1 [compound 826887] — 0.51 log units lower, 7.08
- O=C(NC1CCC(CO)CC1)C1CC1CN1CCN(c2csc3cc(C(F)(F)F)ccc23)CC1 (stereo not drawn) [compound 816593] — 0.54 log units higher, 8.13
- O=C(NC1CCCCC1)[C@@H]1C[C@H]1CN1CCCN(c2csc3cc(F)ccc23)CC1 [compound 826881] — 1.03 log units higher, 8.62
- O=C(NC1CCCCCCCC1)[C@@H]1C[C@H]1CN1CCCN(c2csc3cc(C(F)(F)F)ccc23)CC1 [compound 826681] — 0.27 log units lower, 7.32
- O=C(NC1CCCCC1)[C@@H]1C[C@H]1CN1CCN(c2csc3cc(F)ccc23)CC1 [compound 826677] — 1.05 log units higher, 8.64

same assay, conditions: the 17th table; read-out: D3 Ki

`C[C@H]1CC[C@H](N2CC(CN3CCN(c4noc5ccsc45)CC3)CC2=O)CC1` (stereo partly drawn) [832831 DA] was tested, and the pKi was 6.81.
